# Data from patent US20030004172A1, “Fused pyrimidinone matrix metalloproteinase inhibitors” (priority 2001, published 2003).
# pIC50: −log10 of the molar value. Read-outs that look alike come from different tables or passages of the source.
# Biological target: MMP-13CD (catalytic domain of collagenase-3) (Homo sapiens, UniProt P45452)
# Test: Thiopeptolide substrate hydrolysis inhibition assay, MMP-13CD
# Assay type: biochemical
# Description: Thiopeptolide substrates show virtually no decomposition or hydrolysis at or below neutral pH in the absence of a matrix metalloproteinase enzyme.
# [1] = Table I, thiopeptolide substrate, HEPES pH 7.0, 22° C., read-out: MMP-13CD IC50
pIC50 [1],"pIC50 (Table II, micromolar concentration, HEPES pH 7.0, read-out: IC50 MMP-13CD)",Compound
< 4.00,,"O=C(OCCc1ccccc1)c1cc2c(=O)n(Cc3ccccc3)c(=O)[nH]c2s1 [Example 12, 3-Benzyl-2,4-dioxo-1,2,3,4-tetrahydro-thieno[2,3-d]pyrimidine-6-carboxylic acid 2-phenylethyl ester]"
4.74,,"O=C(OCc1ccoc1)c1cc2c(=O)n(Cc3ccccc3)c(=O)[nH]c2s1 [Example 13, 3-Benzyl-2,4-dioxo-1,2,3,4-tetrahydro-thieno[2,3-d]pyrimidine-6-carboxylic acid furan-3-ylmethyl ester]"
7.06,,"COc1ccc(COC(=O)c2cc3c(=O)n(Cc4ccccc4)c(=O)[nH]c3s2)cc1 [Example 50, 3-Benzyl-2,4-dioxo-1,2,3,4-tetrahydro-thieno[2,3-d]pyrimidine-6-carboxylic acid 4-methoxy-benzyl ester]"
4.52,,"COc1ccc(CNC(=O)c2cc3c(=O)n(Cc4ccc(C(=O)OC(C)(C)C)cc4)c(=O)n(C)c3s2)cc1OC [Example 53, 4-[6-(3,4-Dimethoxy-benzylcarbamoyl)-1-methyl-2,4-dioxo-1,4-dihydro-2H-thieno[2,3-d]pyrimidin-3-ylmethyl]-benzoic acid tert-butyl ester]"
5.35,,"COc1ccc(CNC(=O)c2cc3c(=O)n(Cc4ccc(C(=O)O)cc4)c(=O)n(C)c3s2)cc1OC [Example 54, 4-[6-(3,4-Dimethoxy-benzylcarbamoyl)-1-methyl-2,4-dioxo-1,4-dihydro-2H-thieno[2,3-d]pyrimidin-3-ylmethyl]-benzoic acid]"
4.52,,"Cn1c(=O)n(Cc2ccc(C(=O)OC(C)(C)C)cc2)c(=O)c2cc(C(=O)NCc3ccc(Br)cc3)sc21 [Example 56, 4-[6-(4-Bromo-benzylcarbamoyl)-1-methyl-2,4-dioxo-1,4-dihydro-2H-thieno[2,3-d]pyrimidin-3-ylmethyl]-benzoic acid tert-butyl ester]"
5.25,,"Cn1c(=O)n(Cc2ccc(C(=O)O)cc2)c(=O)c2cc(C(=O)NCc3cc(C(F)(F)F)cc(C(F)(F)F)c3)sc21 [Example 57, 4-[6-(3,5-Bis-trifluoromethyl-benzylcarbamoyl)-1-methyl-2,4-dioxo-1,4-dihydro-2H-thieno[2,3-d]pyrimidin-3-ylmethyl]-benzoic acid]"
6.80,,"COc1ccc(CNC(=O)c2cc3c(=O)n(Cc4ccc(F)cc4)c(=O)n(C)c3s2)cc1 [Example 60, 3-(4-Fluoro-benzyl)-1-methyl-2,4-dioxo-1,2,3,4-tetrahydro-thieno[2,3-d]pyrimidine-6-carboxylic acid 4-methoxy-benzylamide]"

# The next lines start with the compound.
Compound,pIC50 [1],"pIC50 (Table II, micromolar concentration, HEPES pH 7.0, read-out: IC50 MMP-13CD)"
"3-(4-Carboxy-benzyl)-1-methyl-2,4-dioxo-1,2,3,4-tetrahydro-thieno[2,3-d]pyrimidine-6-carboxylic acid 2-ethoxy-benzyl ester [Example 319]",5.10,
"3-(4-Methoxycarboxyl-butyl)-1-methyl-2,4-dioxo-1,2,3,4-tetrahydro-thieno[2,3-d]pyrimidine-6-carboxylic acid benzyl ester [Example 141]",6.82,
"3-Benzyl-1-methyl-2,4-dioxo-1,2,3,4-tetrahydro-thieno[2,3-d]pyrimidine-6-carboxylic acid 2,2,2-trifluoro-1-trifluoromethyl-ethyl ester [Example 168]",4.60,
"3-Benzyl-1-methyl-2,4-dioxo-1,2,3,4-tetrahydro-thieno[2,3-d]pyrimidine-6-carboxylic acid ((S)-2,2-dimethyl-4-phenyl-1,3-dioxinan-5-yl)-amide [Example 341]",4.85,
"CC(=O)c1ccc(-n2c(=O)[nH]c3sc(C(=O)OCc4ccccc4)c(C)c3c2=O)cc1 [Example 6, 3-(4-Acetyl-phenyl)-5-methyl-2,4 dioxo-1,2,3,4-tetrahydro-thieno[2,3-d]-pyrimidine-6-carboxylic acid benzyl ester]",< 4.00,
"Cc1c(C(=O)OCc2ccccc2)sc2[nH]c(=O)n(-c3ccc([N+](=O)[O-])cc3)c(=O)c12 [Example 8, 5-Methyl-3-(4-nitro-phenyl)-2,4-dioxo-1,2,3,4-tetrahydro-thieno[2,3-d]-6-carboxylic acid benzyl ester]",4.82,
"O=C(OCc1ccc2c(c1)OCO2)c1cc2c(=O)n(Cc3ccccc3)c(=O)[nH]c2s1 [Example 10, 3-Benzyl-2,4-dioxo-1,2,3,4-tetrahydro-thieno[2,3-d]pyrimidine-6-carboxylic acid 1,3-benzodioxol-5-ylmethyl ester]",7.17,
"Cn1c(=O)n(Cc2ccccc2)c(=O)c2cc(C(=O)NCc3ccccc3)sc21 [Example 11, 3-Benzyl-1-methyl-2,4-dioxo-1,2,3,4-tetrahydro-thieno[2,3-d]pyrimidine-6-carboxylic acid benzyl amide]",6.33,
"C=Cc1ccc(Cn2c(=O)c3cc(C(=O)OCc4ccccc4)sc3n(C)c2=O)cc1 [Example 20, 1-Methyl-2,4-dioxo-3-(4-vinyl-benzyl)-1,2,3,4-tetrahydro-thieno[2,3-d]pyrimidine-6-carboxylic acid benzyl ester]",,8.19
"Cn1c(=O)n(Cc2ccccc2)c(=O)c2cc(C(=O)OCc3cc4ccccc4o3)sc21 [Example 48, 3-Benzyl-1-methyl-2,4-dioxo-1,2,3,4-tetrahydro-thieno[2,3-d]pyrimidine-6-carboxylic acid benzofuran-2-ylmethyl ester]",5.84,
"Cn1c(=O)n(Cc2ccc(C(=O)O)cc2)c(=O)c2cc(C(=O)NCc3ccncc3)sc21 [Example 51, 4-{1-Methyl-2,4-dioxo-6-[(pyridin-4-ylmethyl)-carbamoyl]-1,4-dihydro-2H-thieno[2,3-d]pyrimidin-3-ylmethyl}-benzoic acid; compound with trifluoro-acetic acid]",7.69,
"COc1ccc(CNC(=O)c2cc3c(=O)n(Cc4ccc(C(=O)O)cc4)c(=O)n(C)c3s2)cc1 [Example 52, 4-[6-(4-Methoxy-benzylcarbamoyl)-1-methyl-2,4-dioxo-1,4-dihydro-2H-thieno[2,3-d]pyrimidin-3-ylmethyl]-benzoic acid]",8.40,
"Cn1c(=O)n(Cc2ccc(C(=O)O)cc2)c(=O)c2cc(C(=O)NCc3ccc(Br)cc3)sc21 [Example 55, 4-[6-(4-Bromo-benzylcarbamoyl)-1-methyl-2,4-dioxo-1,4-dihydro-2H-thieno[2,3-d]pyrimidin-3-ylmethyl]-benzoic acid]",7.96,
"Cn1c(=O)n(Cc2ccc(C(=O)O)cc2)c(=O)c2cc(C(=O)NCc3ccc(Cl)cc3)sc21 [Example 58, 4-[6-(4-Chloro-benzylcarbamoyl)-1-methyl-2,4-dioxo-1,4-dihydro-2H-thieno[2,3-d]pyrimidin-3-ylmethyl]-benzoic acid]",7.94,
"Cn1c(=O)n(Cc2ccc(C(=O)O)cc2)c(=O)c2cc(C(=O)NCc3ccc(S(N)(=O)=O)cc3)sc21 [Example 59, 4-[1-Methyl-2,4-dioxo-6-(4-sulfamoyl-benzylcarbamoyl)-1,4-dihydro-2H-thieno[2,3-d]pyrimidin-3-ylmethyl]-benzoic acid]",5.70,
"COc1cccc(CNC(=O)c2cc3c(=O)n(Cc4ccc(I)cc4)c(=O)n(C)c3s2)c1 [Example 61, 3-(4-Iodo-benzyl)-1-methyl-2,4-dioxo-1,2,3,4-tetrahydro-thieno[2,3-d]pyrimidine-6-carboxylic acid 3-methoxy-benzylamide]",7.35,
